Experimental data as given in the supplement of paper PMC11208160.

assay: recombinant barcode read abundance after kanamycin selection (control-corrected) (log10(CPM+1)); higher = more efficient recombination; sequences stand for … in AGTGCAGAGAAAATCGGCCAGTTTTCTCTGCCTGCAGTCCGCATGCCGT…AGATTTATGCAGCGGACTGCCTTTCTCCCAAAGTGATAAACCGGACAGTATCATGGACCGGTTTTCCCGGTAATCCGTATTTGCAAGGTTGGTTTCACT; site = the 11-nt target
Outline: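 Duplicate cultures were plated either on chloramphenicol/ampicillin LB agar, serving as control, or on chloramphenicol/ampicillin/kanamycin with 0.1 mM IPTG. These came from a pooled E. coli library co-electroporated with a donor plasmid, each member pairing a target with an IS621 bridge RNA target-binding loop. Recombination efficiency equals averaged, control-corrected counts per million of recombinant-junction barcodes. It is listed as log10(CPM+1).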
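Note: IS621 recombinase and bridge RNA in Escherichia coli cells.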

“AGACTCCCTTGGGTTCTAACCTGTTGCAC (site ACACGCCCTGT)” and “CCATCAACTTGGGTTCTAACCTGTTGCCT (site CCATCAACTAG)” are within 0.2 log units of each other in “recombinant barcode read abundance (log10)” value: 0.0745 for the first, 0.0699 for the second.

“TATTGGACTTGGGTTCTAACCTGTTGCAA (site TATTGGACTTT)” and “TGGTAACCTTGGGTTCTAACCTGTTGCCT (site CGGTAACCTAG)” are within 0.2 log units of each other in “recombinant barcode read abundance (log10)” value: 0.303 for the first, 0.172 for the second.

First: GGACGCCCTTGGGTTCTAACCTGTTGCCT (site GGACGCCCTAG)
Second: CCTGGAGCTTGGGTTCTAACCTGTTGCAT (site CCTGGAACTAA)
The “recombinant barcode read abundance (log10)” value of the first is higher: 1.35 for the first, 0.266 for the second.

“CAGACGCCTTGGGTTCTAACCTGTTGCAG (site CACACTCCTCT)” and “GTAACCTCTTGGGTTCTAACCTGTTGCCT (site GTAACCTCTTG)” are within 0.2 log units of each other in “recombinant barcode read abundance (log10)” value: 0.039 for the first, 0.0654 for the second.

Compared with “CTAGCCGCTTGGGTTCTAACCTGTTGCTT (site CTAGCCGCTAA)”, “AAGTTTCCTTGGGTTCTAACCTGTTGCGT (site ACGTTTCCTAT)” is lower in “recombinant barcode read abundance (log10)” value: 1.03 for the first, 0.102 for the second.

Going from “CCTACCGCTTGGGTTCTAACCTGTTGCTT (site CCTACCGCTAA)” to “TAAGGTCCTTGGGTTCTAACCTGTTGCAG (site TAAGGTCCTCT)”, the “recombinant barcode read abundance (log10)” value rises from 0.424 to 2.47.

Compared with “ACAGTAGCTTGGGTTCTAACCTGTTGCTG (site ACACTAGCTCA)”, “TTGAAACCTTGGGTTCTAACCTGTTGCCT (site TTGAAACCTAG)” is higher in “recombinant barcode read abundance (log10)” value: 0.0586 for the first, 1.04 for the second.

Compared with “TGAAGTACTTGGGTTCTAACCTGTTGCCT (site TGAAATACTAG)”, “TACGCCTCTTGGGTTCTAACCTGTTGCCT (site TACGCCTCTAG)” is higher in “recombinant barcode read abundance (log10)” value: 0.35 for the first, 1.29 for the second.

First: TCCTACCCTTGGGTTCTAACCTGTTGCCT (site TTCTACCCTAG)
Second: CTAACCTCTTGGGTTCTAACCTGTTGCTA (site CTAACCTCTTA)
The “recombinant barcode read abundance (log10)” value of the first is lower: 0.271 for the first, 1.42 for the second.

First: TCCGAGGCTTGGGTTCTAACCTGTTGCTG (site TCCGAGGCTCA)
Second: AGGTAGACTTGGGTTCTAACCTGTTGCTA (site GGGTACACTTA)
The “recombinant barcode read abundance (log10)” value of the first is higher: 0.739 for the first, 0.303 for the second.

“TCGAACCCTTGGGTTCTAACCTGTTGCTT (site TCGAACCCTAA)” and “TACACAGCTTGGGTTCTAACCTGTTGCCT (site TATACAGCTAG)” are within 0.2 log units of each other in “recombinant barcode read abundance (log10)” value: 0.258 for the first, 0.149 for the second.

Going from “GGCGACCCTTGGGTTCTAACCTGTTGCCT (site GGCGTCACTAG)” to “CCGAAGCCTTGGGTTCTAACCTGTTGCCT (site CCGAAGCCTAG)”, the “recombinant barcode read abundance (log10)” value rises from 0.143 to 1.01.

“ATGGATACTTGGGTTCTAACCTGTTGCCT (site ATGTACACTAG)” and “TGGAGCCCTTGGGTTCTAACCTGTTGCAC (site TGGAGCCCTGT)” are within 0.2 log units of each other in “recombinant barcode read abundance (log10)” value: 0.22 for the first, 0.253 for the second.

“GTGTGTCCTTGGGTTCTAACCTGTTGCAT (site GTGTCTCCTAT)” and “GTTACTACTTGGGTTCTAACCTGTTGCCG (site TGGTACCCTTA)” are within 0.2 log units of each other in “recombinant barcode read abundance (log10)” value: 0.122 for the first, 0.0233 for the second.

Going from “GATAGAACTTGGGTTCTAACCTGTTGCTT (site GAGAGGACTAA)” to “AGGATCCCTTGGGTTCTAACCTGTTGCAT (site AGGATCCCTAT)”, the “recombinant barcode read abundance (log10)” value rises from 0.204 to 1.99.

Going from “ACGTGGCCTTGGGTTCTAACCTGTTGCCA (site ACGTGGCCTTG)” to “TAGGGCGCTTGGGTTCTAACCTGTTGCCT (site TAGGGCGCTAG)”, the “recombinant barcode read abundance (log10)” value rises from 0.0442 to 1.01.

“CGAATCCCTTGGGTTCTAACCTGTTGCCT (site CGAATCTCTAG)” and “CACGAGTCTTGGGTTCTAACCTGTTGCCT (site CACGAGGCTAG)” are within 0.2 log units of each other in “recombinant barcode read abundance (log10)” value: 0.117 for the first, 0.109 for the second.

Compared with “CAGGACCCTTGGGTTCTAACCTGTTGCCT (site CAGGACCCTAG)”, “GTCTCTCCTTGGGTTCTAACCTGTTGCCG (site GTCTCTCCTCG)” is lower in “recombinant barcode read abundance (log10)” value: 2.18 for the first, 0.0734 for the second.

Compared with “CTAGTGGCTTGGGTTCTAACCTGTTGCCG (site CTAGTGGCTCG)”, “TCTACCTCTTGGGTTCTAACCTGTTGCCT (site TCTACTTCTAG)” is lower in “recombinant barcode read abundance (log10)” value: 1.3 for the first, 0.0484 for the second.

“GTCATGTCTTGGGTTCTAACCTGTTGCTC (site GTCATGTCTGA)” and “TCACAGACTTGGGTTCTAACCTGTTGCCG (site TCACAGACTCG)” are within 0.2 log units of each other in “recombinant barcode read abundance (log10)” value: 1.23 for the first, 1.2 for the second.

Going from “ATCCAGGCTTGGGTTCTAACCTGTTGCGG (site ATTCAGACTCC)” to “AACTGAACTTGGGTTCTAACCTGTTGCCT (site AACTGAACTAG)”, the “recombinant barcode read abundance (log10)” value rises from 0.00907 to 0.459.

Compared with “GTCCAGACTTGGGTTCTAACCTGTTGCCT (site GTTCAGACTAG)”, “GAGAGTCCTTGGGTTCTAACCTGTTGCCA (site GAGAGTCCTTG)” is higher in “recombinant barcode read abundance (log10)” value: 0.228 for the first, 1.24 for the second.

Compared with “CGGAAGACTTGGGTTCTAACCTGTTGCCT (site CGGAAGACTAG)”, “TACTATTCTTGGGTTCTAACCTGTTGCCT (site TACTATGCTAG)” is lower in “recombinant barcode read abundance (log10)” value: 1.98 for the first, 0.175 for the second.

First: CCGCCCTCTTGGGTTCTAACCTGTTGCTT (site CAGCCCTCTTA)
Second: CATAGACCTTGGGTTCTAACCTGTTGCAT (site CATAGCCCTAT)
The “recombinant barcode read abundance (log10)” value of the first is higher: 0.586 for the first, 0.0625 for the second.

First: TAGACATCTTGGGTTCTAACCTGTTGCTC (site TAGTCATCTGA)
Second: CACGCCTCTTGGGTTCTAACCTGTTGCCT (site CACGCCTCTAG)
The “recombinant barcode read abundance (log10)” value of the first is lower: 0.016 for the first, 1.88 for the second.

First: TAGTTCACTTGGGTTCTAACCTGTTGCAT (site TAGGTCACTAT)
Second: GGCGCATCTTGGGTTCTAACCTGTTGCCT (site GGCGCATCTAG)
The “recombinant barcode read abundance (log10)” value of the first is lower: 0.159 for the first, 0.417 for the second.

Compared with “CCACAGTCTTGGGTTCTAACCTGTTGCCT (site CCACAGTCTAG)”, “ACCAATACTTGGGTTCTAACCTGTTGCCT (site ACCAATTCTAG)” is lower in “recombinant barcode read abundance (log10)” value: 1.44 for the first, 0.0138 for the second.

Compared with “GACATCACTTGGGTTCTAACCTGTTGCCT (site GACATCTCTAG)”, “GAATGTCCTTGGGTTCTAACCTGTTGCAT (site GAATGTCCTAT)” is higher in “recombinant barcode read abundance (log10)” value: 0.0671 for the first, 1.39 for the second.

Compared with “TGGAACCCTTGGGTTCTAACCTGTTGCGG (site TGGCACCCTCC)”, “TAGCCACCTTGGGTTCTAACCTGTTGCCT (site CAGCCACCTAG)” is higher in “recombinant barcode read abundance (log10)” value: 0.0841 for the first, 0.917 for the second.

First: AGGCCGCCTTGGGTTCTAACCTGTTGCCG (site AGGCCGGCTCG)
Second: CCACGAGCTTGGGTTCTAACCTGTTGCGG (site CCACGAGCTCC)
The “recombinant barcode read abundance (log10)” value of the first is lower: 0.178 for the first, 1.4 for the second.

Going from “TACCCTACTTGGGTTCTAACCTGTTGCCT (site TACCCTACTAG)” to “CTGGTGCCTTGGGTTCTAACCTGTTGCCT (site CGGGTGCCTAG)”, the “recombinant barcode read abundance (log10)” value falls from 0.628 to 0.248.

Compared with “GTATGAGCTTGGGTTCTAACCTGTTGCGG (site GTATGAGCTCC)”, “AGAGGGACTTGGGTTCTAACCTGTTGCCT (site AGAGGGACTAG)” is higher in “recombinant barcode read abundance (log10)” value: 2.06 for the first, 2.34 for the second.

Compared with “AGGTCCTCTTGGGTTCTAACCTGTTGCTT (site AGGTCCTCTAC)”, “ACACTCCCTTGGGTTCTAACCTGTTGCCT (site AAGCTCCCTAG)” is lower in “recombinant barcode read abundance (log10)” value: 0.715 for the first, 0.415 for the second.

Going from “TTAGTACCTTGGGTTCTAACCTGTTGCCT (site TTAGTCCCTAG)” to “CTACTAACTTGGGTTCTAACCTGTTGCCT (site CTACTAACTAA)”, the “recombinant barcode read abundance (log10)” value falls from 0.218 to 0.0105.

“GGCAGGTCTTGGGTTCTAACCTGTTGCTT (site GGCAGTTCTAA)” and “CTCTCGTCTTGGGTTCTAACCTGTTGCTT (site CTCTCGTCTAG)” are within 0.2 log units of each other in “recombinant barcode read abundance (log10)” value: 0.044 for the first, 0.107 for the second.

First: AGGCCGCCTTGGGTTCTAACCTGTTGCCG (site AGGCCGCCTCG)
Second: TCGCGAACTTGGGTTCTAACCTGTTGCCT (site TCGGGAACTAG)
The “recombinant barcode read abundance (log10)” value of the first is higher: 1.17 for the first, 0 for the second.

Going from “TTGGCCGCTTGGGTTCTAACCTGTTGCCT (site TTGGTCGCTAG)” to “GTCGATCCTTGGGTTCTAACCTGTTGCCT (site GACGATCCTAG)”, the “recombinant barcode read abundance (log10)” value rises from 0.148 to 0.69.

“TCCGAGACTTGGGTTCTAACCTGTTGCGT (site TTCGAAACTAC)” and “CTAATAGCTTGGGTTCTAACCTGTTGCCA (site AGTCCGTCTAT)” are within 0.2 log units of each other in “recombinant barcode read abundance (log10)” value: 0.226 for the first, 0.186 for the second.

First: GGGTCGGCTTGGGTTCTAACCTGTTGCGG (site GGGTCGGCTCC)
Second: TAGTACTCTTGGGTTCTAACCTGTTGCTA (site TAGTACTCTTA)
The “recombinant barcode read abundance (log10)” value of the first is higher: 2.44 for the first, 1.58 for the second.

Compared with “TAGGACGCTTGGGTTCTAACCTGTTGCCT (site TACGACGCTAG)”, “AGAAAAGCTTGGGTTCTAACCTGTTGCAA (site AGAAAAGCTTT)” is higher in “recombinant barcode read abundance (log10)” value: 0.114 for the first, 1.06 for the second.

“TTACTCTCTTGGGTTCTAACCTGTTGCCT (site TGACTCTCTAG)” and “CCTAATGCTTGGGTTCTAACCTGTTGCCT (site CCAAAGGCTAG)” are within 0.2 log units of each other in “recombinant barcode read abundance (log10)” value: 0.137 for the first, 0.0782 for the second.

First: CTAGAAGCTTGGGTTCTAACCTGTTGCGG (site CTAGAAGCTCC)
Second: TAGTGTGCTTGGGTTCTAACCTGTTGCGT (site TAGTGTGCTAC)
The “recombinant barcode read abundance (log10)” value of the first is lower: 1.31 for the first, 1.66 for the second.

Compared with “GATACGTCTTGGGTTCTAACCTGTTGCCT (site GATACGACTAG)”, “GGTTACCCTTGGGTTCTAACCTGTTGCGG (site GGTTACCCTCC)” is higher in “recombinant barcode read abundance (log10)” value: 0.352 for the first, 2.08 for the second.
